# Test results as given in US20260042769A1, “TRIARYL AGONISTS OF ALPHA-2 ADRENERGIC RECEPTORS” (ALCEPTOR THERAPEUTICS, INC., priority 2023, published 2026).
# pEC50: −log10 of the molar value.
# Molecular target: T1, human ADRA2B receptor (Homo sapiens, UniProt P18089)
# T1 construct: expressed in transfected cells
# T1 sequence (P18089 1-450): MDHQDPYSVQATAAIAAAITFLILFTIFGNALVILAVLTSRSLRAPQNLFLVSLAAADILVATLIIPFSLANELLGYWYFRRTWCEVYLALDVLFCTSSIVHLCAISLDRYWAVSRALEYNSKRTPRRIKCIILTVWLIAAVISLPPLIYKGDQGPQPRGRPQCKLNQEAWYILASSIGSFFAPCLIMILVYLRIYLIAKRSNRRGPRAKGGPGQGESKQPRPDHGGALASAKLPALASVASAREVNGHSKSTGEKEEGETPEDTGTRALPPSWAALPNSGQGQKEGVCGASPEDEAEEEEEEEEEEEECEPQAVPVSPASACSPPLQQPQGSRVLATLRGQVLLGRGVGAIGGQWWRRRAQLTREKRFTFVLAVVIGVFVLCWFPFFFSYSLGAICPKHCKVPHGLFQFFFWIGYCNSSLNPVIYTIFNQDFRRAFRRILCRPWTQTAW
# Test: GTPγS agonist assay, ADRA2B receptor
# Type: biochemical
# Conditions: read-out: GTPase - Human Alpha2B EC50
# Description: GTP ? S Agonist Assays (ADRA2A, ADRA2B, and ADRA2C Receptors)
# Membranes were prepared for GTP ? S binding assays from CHO-K1 cells stably expressing human ADRA2A, ADRA2B, or ADRA2C receptor. Briefly, cells were grown in 5-layer cell culture flasks. Cells were washed with 50 mL of PBS and then dissociated with 0.05% trypsin. Dissociated cells were then collected by centrifugation at 650×g for 8 min at 4° C. Pellets were washed again in PBS by centrifugation and resuspended in 30 mL of 20 mM HEPES, 10 mM EDTA, pH 7.4. After sitting on ice for 30 min, membranes were collected by centrifugation at 50000×g for 15 min at 4° C., resuspended in 30 mL of 20 mM HEPES, 0.1 mM EDTA, pH 7.4 and collected again by centrifugation. Pellets were then washed twice by centrifugation in 30 mL of 20 mM HEPES, pH 7.4, and stored at −80° C. until the day of the assay. On the day of the assay, pellets were thawed on ice and resuspended in 1 mL of 20 mM HEPES, pH 7.4, 10 mM MgCl2, 100 mM NaCl using dounce homogenization. Membrane protein concentration was determined by BCA protein assay (Promega, Madison, WI) according to Promega guidelines.
# On the day of the assay, serial dilutions of test compounds were brought up in assay buffer (20 mM HEPES, 10 mM MgCl2, 200 mM NaCl) at 10× final assay concentration. 50 μL/well of membrane homogenates (containing 5 μg of membrane protein for ADRA2A, ADRA2B, or 7.5 μg for ADRA2C) were prepared in assay buffer supplemented with GDP at 2× final assay concentration (5 μM GDP) and dispensed into 96 well polypropylene, U-bottom Greiner plates. Then, 10 μL of compounds were added to assay plates and incubated for 10 min at room temperature. […] The binding reaction was incubated for 1 h at 37° C. Membranes in assay reactions were then transferred to GF/C filter plates (UniFilter, Perkin Elmer) and washed three times using a FilterMate Harvester (Perkin Elmer) with cold assay buffer containing no GDP. Filter plates were then dried at 40° C. overnight followed by the addition of 30 μL/well of Beta Plate Scintillation liquid. Plates were top and bottom sealed before being read on TopCount scintillation counter (Perkin Elmer, Waltham, MA).
row,SMILES,pEC50
1,"COc1cccc(C[C@H](c2c[nH]cn2)c2cccc(OC)c2Cl)n1 [Compound 111, 4-[(S)-1-(2-chloro-3-methoxyphenyl)-2-(6-methoxy-2-pyridyl)ethyl] imidazole]",6.30 to 7.30
2,"COc1cccc(C[C@H](c2cccc(C)c2)c2cnc[nH]2)n1 [Compound 24, 2-[(2R)-2-(1H-imidazol-4-yl)-2-(3-methylphenyl)ethyl]-6-methoxypyridine]",< 6.30
3,"Cc1c(Cl)cccc1[C@H](Cc1cccnc1)c1cnc[nH]1 [Compound 62, 3-[(2S)-2-(3-chloro-2-methylphenyl)-2-(1H-imidazol-4-yl)ethyl]pyridine]",< 6.30
4,"Cc1cccc([C@@H](Cc2cncs2)c2c[nH]cn2)c1C [Compound 128, 5-[(R)-2-(4-imidazolyl)-2-(2,3-xylyl)ethyl]-1,3-thiazole]",6.30 to 7.30
5,"COc1nccc(CC(c2ccc(OC(F)(F)F)cc2)c2c[nH]cn2)n1 (stereo not drawn) [Compound 203, 4-[2-(4-imidazolyl)-2 (p-trifluoromethoxyphenyl)ethyl]-2-methoxypyrimidine]",< 6.30
6,"Cc1cccc([C@@H](Cc2cnco2)c2c[nH]cn2)c1C [Compound 365, 5-[(R)-2-(4-imidazolyl)-2-(2,3-xylyl)ethyl]-1,3-oxazole]",< 6.30
7,"COc1cccc(C[C@H](c2cccc(Cl)c2)c2cnc[nH]2)n1 [Compound 22, 2-[(2R)-2-(3-chlorophenyl)-2-(1H-imidazol-4-yl)ethyl]-6-methoxypyridine]",< 6.30
8,"COc1nccc(CC(c2c[nH]cn2)c2cccc3cn[nH]c23)n1 (stereo not drawn) [Compound 172, 7-[1-(4-imidazolyl)-2-(2-methoxy-4-pyrimidinyl)ethyl]-1H-indazole]",< 6.30
9,"COc1cccc(C[C@@H](c2c[nH]cn2)c2cccc(Cl)c2OC)n1 [Compound 8, 2-[(2R)-2-(3-chloro-2-methoxyphenyl)-2-(1H-imidazol-4-yl)ethyl]-6-methoxypyridine]",< 6.30
10,"Cc1cccc([C@@H](Cc2ccccn2)c2cnc[nH]2)c1C [Compound 52, 2-[(2R)-2-(2,3-dimethylphenyl)-2-(1H-imidazol-4-yl)ethyl] pyridine]",7.30 to 8.00
11,"Cc1cccc([C@H](Cc2ccc(=O)[nH]n2)c2cnc[nH]2)c1C [Compound 76, 6-[(2S)-2-(2,3-dimethylphenyl)-2-(1H-imidazol-4-yl)ethyl]-2,3-dihydropyridazin-3-one]",< 6.30
12,"COCCNc1cccc(CC(c2cnc[nH]2)c2cccc(C)c2C)n1 (stereo not drawn) [Compound 84, 6-[2-(2,3-dimethylphenyl)-2-(1H-imidazol-4-yl)ethyl]-N-(2-methoxyethyl) pyridin-2-amine]",> 8.00
13,"Cc1cccc(C(Cc2ncccn2)c2cnc[nH]2)c1C (stereo not drawn) [Compound 93, 2-[2-(2,3-dimethylphenyl)-2-(1H-imidazol-4-yl)ethyl] pyrimidine]",6.30 to 7.30
14,"Cc1nccc(C[C@H](c2cnc[nH]2)c2cccc(C)c2C)n1 [Compound 70, 4-[(2S)-2-(2,3-dimethylphenyl)-2-(1H-imidazol-4-yl)ethyl]-2-methyl-pyrimidine]",> 8.00
15,"Cc1nc(C[C@@H](c2cnc[nH]2)c2cccc(C)c2C)cs1 [Compound 102, 4-[(R)-2-(4-imidazolyl)-2-(2,3-xylyl)ethyl]-2-methyl-1,3-thiazole]",7.30 to 8.00
16,"COc1cc(OC(F)(F)F)cc(C(Cc2ccnc(OC)n2)c2c[nH]cn2)c1 (stereo not drawn) [Compound 204, 4-[2-(4-imidazolyl)-2-(3-methoxy-5-trifluoromethoxyphenyl)ethyl]-2-methoxypyrimidine]",< 6.30
17,"Cc1cccc(C(Cc2cocn2)c2c[nH]cn2)c1C (stereo not drawn) [Compound 126, 4-[2-(4-imidazolyl)-2-(2,3-xylyl)ethyl]-1,3-oxazole]",> 8.00
18,"Cc1cc(C[C@@H](c2cnc[nH]2)c2cccc(C)c2C)n(C)n1 [Compound 69, 5-[(2R)-2-(2,3-dimethylphenyl)-2-(1H-imidazol-4-yl)ethyl]-1,3-dimethyl-1H-pyrazole]",> 8.00
19,"COc1cccc(C[C@H](c2c[nH]cn2)c2cccc(Cl)c2OC)n1 [Compound 7, 2-[(2S)-2-(3-chloro-2-methoxyphenyl)-2-(1H-imidazol-4-yl)ethyl]-6-methoxypyridine]",7.30 to 8.00
20,"Cc1nccc(CC(c2c[nH]cn2)c2cccc3ncoc23)n1 (stereo not drawn) [Compound 338, 7-[1-(4-imidazolyl)-2-(2-methyl-4-pyrimidinyl)ethyl]-1,3-benzoxazole]",< 6.30
21,"FC(F)(F)c1ccc(Cl)c(C(Cc2cccnn2)c2c[nH]cn2)c1 (stereo not drawn) [Compound 361, 3-{2-[2-chloro-5-(trifluoromethyl)phenyl]-2-(4-imidazolyl)ethyl}pyridazine]",< 6.30
22,"FC(F)(F)Oc1ccccc1[C@H](Cc1ccccn1)c1cnc[nH]1 [Compound 29, 2-[(2S)-2-(1H-imidazol-4-yl)-2-[2-(trifluoromethoxy)phenyl]ethyl] pyridine]",< 6.30
23,"Cc1cncc(C[C@H](c2cnc[nH]2)c2cccc(C)c2C)n1 [Compound 82, 2-[(2S)-2-(2,3-dimethylphenyl)-2-(1H-imidazol-4-yl)ethyl]-6-methylpyrazine]",6.30 to 7.30
24,"COc1cncc(CC(c2cnc[nH]2)c2cccc(C)c2C)n1 (stereo not drawn) [Compound 89, 2-[2-(2,3-dimethylphenyl)-2-(1H-imidazol-4-yl)ethyl]-6-methoxy-pyrazine]",> 8.00

# Next, values leading:
row,pEC50,SMILES
1,> 8.00,"Cc1cccc(C(Cc2ccnn2C)c2c[nH]cn2)c1C (stereo not drawn) [Compound 127, 5-[2-(4-imidazolyl)-2-(2,3-xylyl)ethyl]-1-methyl-pyrazole]"
2,7.30 to 8.00,"COc1ccc(CC(c2c[nH]cn2)c2cccc(C)c2C)nn1 (stereo not drawn) [Compound 133, 3-[2-(4-imidazolyl)-2-(2,3-xylyl)ethyl]-6-methoxy-pyridazine]"
3,7.30 to 8.00,"Cc1cccc(C(Cc2ccc(N3CCCC3)nc2)c2c[nH]cn2)c1C (stereo not drawn) [Compound 309, 4-{2-[6-(1-pyrrolidinyl)-3-pyridyl]-1-(2,3-xylyl)ethyl}imidazole]"
4,> 8.00,"COc1cccc(CC(c2c[nH]cn2)c2cccc(C)c2Cl)n1 (stereo not drawn) [Compound 28, 2-[2-(2-chloro-3-methylphenyl)-2-(1H-imidazol-4-yl)ethyl]-6-methoxypyridine]"
5,> 8.00,"COc1nccc(CC(c2c[nH]cn2)c2cccc(C)c2Cl)n1 (stereo not drawn) [Compound 186, 4-[2-(2-chloro-3-tolyl)-2-(4-imidazolyl)ethyl]-2-methoxypyrimidine]"
6,7.30 to 8.00,"Cc1cccc(C(Cc2cnn(C(C)C)c2)c2c[nH]cn2)c1C (stereo not drawn) [Compound 277, 4-[2-(4-imidazolyl)-2-(2,3-xylyl)ethyl]-1-isopropylpyrazole]"
7,7.30 to 8.00,"c1ccc(C[C@@H](c2c[nH]cn2)c2cccc3c2OCC3)nc1 [Compound 44, 2-[(2R)-2-(2,3-dihydro-1-benzofuran-7-yl)-2-(1H-imidazol-4-yl)ethyl] pyridine]"
8,< 6.30,"Cc1cccc([C@@H](Cc2cccc(C(F)(F)F)n2)c2c[nH]cn2)c1C [Compound 81, 2-[(2R)-2-(2,3-dimethylphenyl)-2-(1H-imidazol-4-yl)ethyl]-6-(trifluoromethyl) pyridine]"
9,< 6.30,"c1cnnc(C[C@H](c2c[nH]cn2)c2cccc3c2OCC3)c1 [Compound 363, 3-[(S)-2-(2,3-dihydro-1-benzofuran-7-yl)-2-(4-imidazolyl)ethyl]pyridazine]"
10,7.30 to 8.00,"Cc1nnc(CC(c2c[nH]cn2)c2cccc(C)c2C)o1 (stereo not drawn) [Compound 241, 2-[2-(4-imidazolyl)-2-(2,3-xylyl)ethyl]-5-methyl-1,3,4-oxadiazole]"
11,> 8.00,"Cc1cccc(C(Cc2cnn(C3CC3)c2)c2c[nH]cn2)c1C (stereo not drawn) [Compound 271, 1-cyclopropyl-4-[2-(4-imidazolyl)-2-(2,3-xylyl)ethyl]pyrazole]"
12,7.30 to 8.00,"Cc1nc(C)c(C[C@H](c2c[nH]cn2)c2cccc(C)c2C)s1 [Compound 124, 5-[(S)-2-(4-imidazolyl)-2-(2,3-xylyl)ethyl]-2,4-dimethyl-1,3-thiazole]"
